# *1 amine or outer side, *2 acyl side, *3 side chain or, on linkers, in order; H or OH if unused. The star is where a group is joined. X1 = C[C@@H](CN*)NC(=O)[C@@H](N)Cc1c[nH]cn1; CO = O=C([*:1])[*:2]
# Assays:
# [1] = biological target: GLP-1R (Homo sapiens, UniProt P43220); test: β-arrestin-2 recruitment assay in PathHunter CHO-GLP-1R cells; format: cell-based; parameters: host or cells: PathHunter CHO-GLP-1R-βarr2 cells; details: 30 min stimulation at 37 °C, n = 5, versus non-ureido parents 10 and 13
# Chain of GLP-1R (P43220 24-463): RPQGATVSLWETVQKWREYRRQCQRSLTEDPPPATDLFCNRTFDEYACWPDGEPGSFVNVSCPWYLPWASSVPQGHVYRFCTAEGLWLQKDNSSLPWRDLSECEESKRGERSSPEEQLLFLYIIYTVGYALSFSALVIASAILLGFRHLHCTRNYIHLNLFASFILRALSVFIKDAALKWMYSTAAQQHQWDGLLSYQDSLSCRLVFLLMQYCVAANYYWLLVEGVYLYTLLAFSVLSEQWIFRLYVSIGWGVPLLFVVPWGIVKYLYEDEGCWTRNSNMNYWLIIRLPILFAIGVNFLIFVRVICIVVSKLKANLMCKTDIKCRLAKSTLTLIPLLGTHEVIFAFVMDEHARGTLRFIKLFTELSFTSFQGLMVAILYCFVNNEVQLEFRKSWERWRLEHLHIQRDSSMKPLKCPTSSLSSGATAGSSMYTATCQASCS
# Procedure: signal measured at 665 nm by that measured at 620 nm (ratio). The results are expressed as a percent […]
# tested in each experiment at several concentrations to generate a concentration-response curve from which its EC50 value and SE are calculated using GraphPad Prism.
# In vitro pharmacology on immortalised CHO-GLP-1R cells (EC50: Method C3) PathHunter CHO-GLP-1R cells were stimulated for 30 min at 37°C with indicated concentration of agonist in serum free medium without phosphodiesterase inhibitors. The reaction was terminated by addition of cAMP detection reagents (cAMP Dynamic 2, Cisbio) and read by HTRF.
# β-arrestin-2 recruitment assay […]
# agonist in serum free medium. The reaction was terminated by addition of PathHunter detection reagents (DiscoverX) and luminescent signal recorded.
# Calculation of signal bias
# Biased signalling was quantified using a modified form of the operational model.[6] LogR values were calculated for each ligand in each assay, and ∆LogR were determined by subtracting from the […]
# Bias was then determined as ∆∆LogR by subtracting ∆LogR for […]
# [2] = tested on: C57BL/6J mice; test: dose-response study in healthy mice, IPGTT 6 h after agonist; format: in vivo, mouse
# Procedure: Mice were lightly fasted (4 hours) before IP administration of varying doses of each agonist or vehicle (100 µL saline). After a further 6 hours, blood glucose was measured (GlucoRx) from the tail followed by IP administration of 2 g/kg 20% glucose. Blood glucose was monitored at 20, 40 and 60 minute time- […]
# performed on the area-under-curve for each set of data.
# Study in db/db mice (15 days).
# After the acclimation period of 5 days, male db/db mice 8 weeks old (Charles River laboratories) were randomized into groups (n=10) according to their body weight, HOMA-IR and HbA1C measured after an overnight fast and 8 non diabetic mice were excluded. Mice were chronically treated during 15 days via s.c. route (once daily) at around 8AM with the vehicle or with 100 µg kg-1 (25 nmol kg-1) of the oligomers. Formulation: 20 µg mL-1 in PBS 1×. On the 7th day of treatment, fed blood glucose was […]
# On the 12th day of treatment, mice were fasted 6 hours and an OGTT (glucose 1 g kg-1 p.o.) was performed 6 hours (2 PM) after the dosing. Blood glucose was […]
# On the 15th day of treatment, mice were fasted 6 hours and an ITT (insulin 2 U kg-1 i.p.) was performed 6 hours (2 PM) after the dosing. […]
# samples were collected for measuring HbA1c just before the start of the treatments and at the end of […]
# Fifteen mice (male C57BL/6J mice (Janvier Labs, France) 9 weeks old, 20-25 g) were treated with GLP-1 analogues via i.v. injections (2 mg kg-1) formulated at 1 mg mL-1 in PBS 1×. After different time points mice were sacrificed and blood sample were collected. The plasma was separated by centrifugation and the samples were frozen at -80°C before analysis. A volume of 400 µL of each sample of plasma was mixed with 1 ml of acetonitrile to precipitate the protein and extract the compound. The sample were then vortexed and centrifuged (15 000 × g, 5 min, 16 °C) to sediment the precipitated protein.
# The supernatant was analysed by LC-MS/MS using a UHPLC coupled to LC-MS 8030 Shimadzu triple […]
# Molecular dynamics simulation of GLP-1R in complex with ureidopeptide 3 […]
# Human GLP-1R which shares […]
# [3] = healthy C57BL/6J mice, 0.01 to 10 nmol kg-1 i.p., IPGTT 6 h after dose, 3-parameter fit of AUC, n = 8
substance,measurement,setting,value
{X1-CO}-EGTFTSDLSKQLEEEAVRLFIEWLKNGGPSSGAPPSKKKKKK-NH2 [compound 14],recruitment of β-arrestin to GLP-1R,[1],selectively diminished
same,improvement of ED50 versus parent peptide,"[2]; 11 versus exenatide (9), 14 versus LixiL (13)",five-fold improvement
same,ED50 (printed in Fig. 4),[2]; [3],0.47
same,ED50 in vivo,[2]; [3],0.46 nmol/kg

# From article PMC6977461 (Chemical Science, 2019)
